Results as given in patent publication US20210318306A1, “Compositions for and Methods of Neutralizing Lipopolysaccharide Toxicity and Methods of Identifying the Same” (priority 2020, published 2021).
Values joined by “and” are separate entries in the source; they are usually repeats but may differ in a detail not shown here. Equal entries are not always repeated. “Also recorded” adds a separate entry of the source.

Columns and labels:
Type in all cases: cell-based, human
HEK-TLR4 cells = test: P. gingivalis LPS-induced cytokine secretion by HEK-TLR4 cells, Luminex 5-plex magnetic bead panel (Example 2)
Procedure: Commercially available HEK-Blue TLR4 cells (Invitrogen) are recombinant HEK 293 cells that have been transformed with DNA that encodes TLR4 that is expressed and present on the cell surface. HEK-Blue TLR4 cells are grown ion culture and used can be used in experimental assays to identify test compositions that modulate inflammation pathways stimulated by TLR4-LPS interaction.
Initial for LPS and zinc-containing starting solutions were made as follows. An LPS starting solution was prepared as follows: a […] solution of LPS was prepared using 2 μl of 1 mg/ml LPS and 10 ml media. Multiple zinc starting solutions were each prepared using media as diluent: a) 20 mM zinc oxide, b) 2 mM zinc oxide, c) 20 mM zinc citrate, d) 2 mM zinc citrate, e) 20 mM of a composition containing a 2:1 mixture of zinc oxide and zinc citrate and f) 2 mM of a composition containing a 2:1 mixture of zinc oxide and zinc citrate. The starting solutions were used to prepare various test samples.
In some embodiments, control assays include “Untreated”, in which eight Zinc test samples without LPS were made: […], 10 mM zinc oxide+zinc citrate, 1 mM zinc oxide+zinc citrate, 10 mM zinc oxide+zinc citrate+arginine and 1 mM zinc oxide+zinc citrate+arginine, The test samples without LPS were prepared by diluting the zinc starting solutions with equal parts media. Eight test samples with LPS were made: […], […], […], […], 10 mM zinc oxide+zinc citrate LPS, 1 mM zinc oxide+zinc citrate LPS, 10 mM zinc oxide+zinc citrate+arginine LPS and 1 mM zinc oxide+zinc citrate+arginine LPS. The test samples with LPS were prepared by diluting the zinc starting solutions with equal parts LPS starting solution.
Cells were grown to 70-80% confluent in a 96 well plate. 100 uL of a test sample was added to a well. Cells with test sample were incubated overnight. Media was collected from each well and transferred to a corresponding well in a 96-well plate. Assays to measure proinflammatory cytokines including IL-8 secretion were performed for each well.
Inflammation markers in supernatants collected from HEK-Blue cells co-incubated with Zinc and Zinc+LPS were quantified using Luminex Magpix instrument (MAGPIX-XPON42) and human 5-plex cytokine/chemokine Magnetic bead panel (Millipore HCYTOMAG-60K). The human 5-plex cytokine/chemokine Magnetic bead panel quantifies TNF-α, IL-6, IL-8, IL-1β and GM-CSF.
The Luminex Kit Procedure outlined in the instruction manual for each separate Luminex kit was performed on the supernatants collected from the HEK-Blue cells co-incubated with Zinc test solutions without LPS and Zinc test solutions plus LPS. Quality controls in range for the specified analytes were performed to ensure levels were within the acceptable range.
To run the Luminex Test, all necessary calibration and verification procedures as outlined by the MagPix and xPonent softwares were completed and the appropriate protocol for the assay was selected. The standards were verified to be correct and complete the plate layout of samples was verified. […] The “Avg. Result” was identified in the results generated.
Experiments were conducted to identify compositions that inhibit P. gingivalis LPS-induced IL-8, TNFα, GM-CSF, IL-1β and IL-6 by HEK-TLR4 cells. HEK-TLR4 cells in 96 well plates were contacted with 100 μl samples. IL-8, TNFα, GM-CSF, IL-1β and IL-6 were detected as described above.

HEK-Blue hTLR4 cells [1] = test: IL-8 in HEK-Blue hTLR4 cell supernatants with standard P.g. LPS and simple solutions at 1 mM vs 10 mM total zinc (Example 4); settings: for IL-8 Concentration, replicate: listed as ZnCitrate
Procedure: (§1) HEK-Blue hTLR4 cells (Invivogen, cat #hkb-htlr4) were cultured in a DMEM culture medium supplemented with 10% FBS and 1% penstrep at 37° C. with 5% CO2. LPS from Porphyromonas gingivalis (P.g. LPS; Invivogen, cat #tlrl-pglps and cat #tlrl-ppglps) activates TLR4 receptor and downstream inflammation in HEK-Blue hTLR4 cells. P.g. LPS is co-incubated with HEK-Blue hTLR4 cells in the absence or presence of the simple solutions. Standard and ultrapure P.g. LPS were both used due to ultrapure being a specific ligand for the TLR4 receptor while standard LPS is a ligand for both TLR2 and TLR4.
(§2) The simple solutions a) Zinc Oxide (ZnO), b) Zinc Citrate (ZnCitrate), c) Zinc Oxide+Zinc Citrate (Dual Zinc; DZ), d) Dual Zinc+Arginine (DZA, zinc oxide, zinc citrate and arginine), and e) L-Arginine (Arg) were diluted at different concentrations with culture medium.
1) experiments using 1 mM vs 10 mM total zinc; and
(§3) HEK-Blue hTLR4 cells were plated in 96-well plates and grown until confluent at 37° C. and 5% CO2 in HEK-blue selection media (DMEM with 10% FBS, 1% penicillin-streptomycin, and antibiotics for HEK-blue selection (Invivogen, cat #hb-sel)). Cells were co-incubated overnight with varying concentrations of different zinc actives as well as arginine and stimulated with either 0.1 μg/mL standard P. gingivalis LPS or 1 μg/mL ultrapure P. gingivalis LPS. Cell supernatants were collected for human inflammation cytokine panels using Multiplex and ELISA analysis.
(§4) Multiplex analysis was performed using the MILLIPLEX MAP Human Cytokine/Chemokine Magnetic Bead Panel—Immunology Multiplex Assay for IL-1, IL-6, IL-8, TNFα, and GM-CSF (Millipore Sigma, cat #HCYTOMAG-60K).
Testing was performed using total zinc concentrations to normalize the amount the zinc applied in the cell culture medium during co-incubation. Two concentrations of total zinc ion are based on the potential amount of zinc retained on the mouth soft tissue surface.

HEK-Blue hTLR4 cells [2] = test: IL-8 dose response in HEK-Blue hTLR4 cells with P.g. LPS 1 μg/ml and 3X-24X dilutions of simple solutions (Example 4); settings: for IL-8 Concentration, replicate: listed as ZnCitrate
Procedure: as §1, §2
2) experiments using 3×, 6×, 12×, and 24× dilution fold of the simple solutions (see Table 6 below).
as §3, §4
In order to understand the role of Arginine in the inhibition of LPS induced inflammation, a dose response experiment was performed using ultrapure P.g. LPS, which only specifically targets TLR4 receptor, in order to maximize the activation of NF-kB and expression of IL-8.
The testing samples were prepared as the stock simple solutions. […] The first serial dilution was made 3 times with water, a dilution factor simulating dilution of toothpastes while brushing. Additional serial dilutions were made by 2-fold of the first dilution to study dose response effect.

[3] = 300 ppm with 0.1μ/ml P. gingivalis LPS
[4] = 600 ppm with 0.1μ/ml P. gingivalis LPS
[5] = P. gingivalis LPS, 300 and 600 ppm, listed as zinc citrate
[6] = 1 mM total zinc with standard P.g. LPS (0.1 μg/ml)
[7] = 10 mM total zinc with standard P.g. LPS (0.1 μg/ml)
[8] = 3X dilution of stock simple solution (Table 6) with P.g. LPS (1 μg/ml)
[9] = 6X dilution of stock simple solution (Table 6) with P.g. LPS (1 μg/ml)
[10] = 12X dilution of stock simple solution (Table 6) with P.g. LPS (1 μg/ml)
[11] = 24X dilution of stock simple solution (Table 6) with P.g. LPS (1 μg/ml)

Compound: O=C([O-])CC(O)(CC(=O)[O-])C(=O)[O-].O=C([O-])CC(O)(CC(=O)[O-])C(=O)[O-].[Zn+2].[Zn+2].[Zn+2] [ZnC, zinc citrate]
- GM-CSF (raw data, single replicate) (HEK-TLR4 cells; [3]): <3.2 pg/ml (3×) and 0.633 pg/ml
- IL-1β (raw data, single replicate) (HEK-TLR4 cells; [3]): 0.4044 pg/mL and 0.5186 pg/mL and 0.1227 pg/mL and 1.331 pg/mL
- IL-6 (raw data, single replicate) (HEK-TLR4 cells; [3]): <3.2 pg/ml (3×) and 0.5932 pg/ml
- IL-8 (average result) (HEK-TLR4 cells; [3]): 395.2 pg/mL
- IL-8 (raw data, single replicate) (HEK-TLR4 cells; [3]): 364.5 pg/mL and 386.8 pg/mL and 285.4 pg/mL and 544.1 pg/mL
- TNF-α (average result) (HEK-TLR4 cells; [3]): 3.857 pg/mL
- TNFα (raw data, single replicate) (HEK-TLR4 cells; [3]): 3.113 pg/mL and 2.696 pg/mL and 2.325 pg/mL and 7.294 pg/mL
- GM-CSF (raw data, single replicate) (HEK-TLR4 cells; 300 ppm, without LPS): <3.2 pg/mL
- IL-1β (raw data, single replicate) (HEK-TLR4 cells; 300 ppm, without LPS): 0.01381 pg/mL and 0.1227 pg/mL and 0.2344 pg/mL and 0.4044 pg/mL
- IL-6 (raw data, single replicate) (HEK-TLR4 cells; 300 ppm, without LPS): <3.2 pg/mL
- IL-8 (average result) (HEK-TLR4 cells; 300 ppm, without LPS): 294 pg/mL
- IL-8 (raw data, single replicate) (HEK-TLR4 cells; 300 ppm, without LPS): 254.6 pg/mL and 237.5 pg/mL and 296.9 pg/mL and 386.9 pg/mL
- TNF-α (average result) (HEK-TLR4 cells; 300 ppm, without LPS): 1.616 pg/mL
- TNFα (raw data, single replicate) (HEK-TLR4 cells; 300 ppm, without LPS): 1.244 pg/mL and 1.675 pg/mL and 1.373 pg/mL and 2.173 pg/mL
- GM-CSF (raw data, single replicate) (HEK-TLR4 cells; [4]): <3.2 pg/mL
- IL-1β (raw data, single replicate) (HEK-TLR4 cells; [4]): 0.6335 pg/ml and 0.1227 pg/ml (2×) and 0.2344 pg/ml
- IL-6 (raw data, single replicate) (HEK-TLR4 cells; [4]): <3.2 pg/mL
- IL-8 (average result) (HEK-TLR4 cells; [4]): 326.3 pg/mL
- IL-8 (raw data, single replicate) (HEK-TLR4 cells; [4]): 447.3 pg/mL and 287.8 pg/mL and 291.5 pg/mL and 278.6 pg/mL
- TNF-α (average result) (HEK-TLR4 cells; [4]): 1.596 pg/mL
- TNFα (raw data, single replicate) (HEK-TLR4 cells; [4]): 2.587 pg/mL and 1.416 pg/mL and 1.266 pg/mL and 1.116 pg/mL
- GM-CSF (raw data, single replicate) (HEK-TLR4 cells; 600 ppm, without LPS): 0.1483 pg/ml and 0.07253 pg/ml and <3.2 pg/ml (2×)
- IL-1β (raw data, single replicate) (HEK-TLR4 cells; 600 ppm, without LPS): 0.9228 pg/mL and 0.2908 pg/mL and 0.01381 pg/mL and 0.1227 pg/mL
- IL-6 (raw data, single replicate) (HEK-TLR4 cells; 600 ppm, without LPS): 0.3248 pg/ml and <3.2 pg/ml (3×)
- IL-8 (average result) (HEK-TLR4 cells; 600 ppm, without LPS): 293.9 pg/mL
- IL-8 (raw data, single replicate) (HEK-TLR4 cells; 600 ppm, without LPS): 434.5 pg/mL and 262.1 pg/mL and 234.6 pg/mL and 244.6 pg/mL
- TNF-α (average result) (HEK-TLR4 cells; 600 ppm, without LPS): 1.172 pg/mL
- TNFα (raw data, single replicate) (HEK-TLR4 cells; 600 ppm, without LPS): 2.064 pg/mL and 1.073 pg/mL and 0.6069 pg/mL and 0.9454 pg/mL
- effect on LPS-induced TNFα (in words) (HEK-TLR4 cells; P. gingivalis LPS, 300 and 600 ppm, listed as Zinc citrate): more profound inhibition
- effect on LPS-induced TNFα (in words) (HEK-TLR4 cells; [5]): significantly reduced
- effect on induction of IL-8 by LPS (in words) (HEK-TLR4 cells; [5]): significantly reduced; also recorded: profound inhibition
- IL-8 Concentration, Average (HEK-Blue hTLR4 cells [1]; [6]): 34.9 pg/mL
- IL-8 Concentration, replicate (HEK-Blue hTLR4 cells [1]; [6]): 55.35 pg/mL and 27.95 pg/mL and 26.65 pg/mL and 29.55 pg/mL
- IL-8 Concentration, Average (HEK-Blue hTLR4 cells [1]; [7]): 10.6 pg/mL
- IL-8 Concentration, replicate (HEK-Blue hTLR4 cells [1]; [7]): 11.85 pg/ml (2×) and 3.15 pg/ml
- IL-8 induced by co-incubation with P.g. LPS (in words) (HEK-Blue hTLR4 cells [1]; at both 1 mM and 10 mM): reduced
- IL-8 Concentration, Average (HEK-Blue hTLR4 cells [2]; [8]): 32.1 pg/mL
- IL-8 Concentration, replicate (HEK-Blue hTLR4 cells [2]; [8]): 35.4 pg/mL and 28.9 pg/mL
- IL-8 Concentration, Average (HEK-Blue hTLR4 cells [2]; [9]): 38.0 pg/mL
- IL-8 Concentration, replicate (HEK-Blue hTLR4 cells [2]; [9]): 38.1 pg/mL and 37.9 pg/mL
- IL-8 Concentration, Average (HEK-Blue hTLR4 cells [2]; [10]): 51.9 pg/mL
- IL-8 Concentration, replicate (HEK-Blue hTLR4 cells [2]; [10]): 55.6 pg/mL and 48.1 pg/mL
- IL-8 Concentration, Average (HEK-Blue hTLR4 cells [2]; [11]): 86.6 pg/mL
- IL-8 Concentration, replicate (HEK-Blue hTLR4 cells [2]; [11]): 88.5 pg/mL and 84.8 pg/mL
